In US20180008563A1 (priority 2015, published 2018):
Like-named read-outs stand apart in the source and are kept apart here.

Tests used:
PEDV = conditions: Kim et al., Virus Research (2013); cited from earlier work
[1] = test system: porcine epidemic diarrhea; experiment: Treatment of porcine epidemic diarrhea of weaned piglets, care pigs and finishing pigs; type: in vivo; conditions: taurine 300 mg per kilogram of body weight per day
Method: Treatment of the porcine epidemic diarrhea on the weaned piglets, the care pigs and the finishing pigs with taurine was implemented by orally administering taurine to the pigs, wherein the administration may be carried out by means of feeding in water or mixed feeding.
the administration was carried out from the day of occurrence of the disease, and in consideration of the use-cost, the drug administration time is preferably 3-30 days, and more preferably 7-14 days. The effect is subject to an obvious time-effect relationship.
(§1) 0.1-2% by weight of taurine was added in the daily-drinking water for the pigs to drink freely; or taurine accounting for 0.2-5% of the feed was added thereto, which is equivalent to a dosage of 100-10000 mg per kilogram of body weight per day of taurine, and the administration was in a single dose or in divided doses. The effect is subject to an obvious quantity-effect relationship.
60 diseased weaned piglets, 60 diseased care pigs and 60 diseased finishing pigs were selected, and were randomly divided into two groups equivalently. Control group: conventional supportive therapy (fluid infusion+antibiotic therapy+atropine sulfate); experimental group: treatment with taurine (the dosage of taurine was 300 mg per kilogram of body weight per day).
II. The pharmaceutical composition according to Embodiment 6 was used for the treatment of porcine epidemic diarrhea of the newborn piglets, weaned piglets, care pigs and finishing pigs. A mode of the administration for the newborn piglets was the same as the method in Embodiment 2, i.e. the administration by drenching and/or mixed-feeding was carried out on the day when the disease occurred in the suckling piglets. The administration by drenching: a solution with a mass concentration of 5% was prepared from the pharmaceutical composition in Embodiment 6 with a dosage of 2-4 mL per time and it was taken 2-6 times per day. The administration by mixed-feeding: 4 g/L of the solution was drunk freely. […]

[2] = test system: porcine epidemic diarrhea; experiment: Prevention of porcine epidemic diarrhea of weaned piglets, care pigs and finishing pigs; type: in vivo; conditions: taurine 200 mg per kilogram of body weight per day
Method: Prevention of the porcine epidemic diarrhea on the weaned piglets, the care pigs and the finishing pigs with taurine was implemented by orally administering taurine to a swine herd, wherein the administration may be carried out by means of feeding in water or mixed feeding.
a preventative administration was carried out during an epidemic period of the disease, or in autumn, winter and spring when the temperature was low and changed greatly, that is, in the season when the porcine epidemic diarrhea frequently occurs. Generally, the administration can be carried out for a long-term. In consideration of the use-cost, the drug administration time is preferably 3-30 days, and more preferably, 7-14 days. The effect is subject to an obvious time-effect relationship.
as §1, with “0.005-2%” for “0.1-2%”, “in” for “in the”, “0.01-5% by weight” for “0.2-5%”, “50-10000” for “100-10000”
120 healthy weaned piglets, 120 healthy care pigs and 120 healthy finishing pigs were selected and randomly divided into two groups equivalently. Control group: conventional feeding; experimental group: conventional feeding+taurine (the dosage of taurine was 200 mg per kilogram of body weight per day).
I. The pharmaceutical composition according to Embodiment 6 was used for the prevention of porcine epidemic diarrhea of the newborn piglets, weaned piglets, care pigs and finishing pigs. Particularly, a mode of the administration for the newborn piglets was the same as the method in Embodiment 1, i.e. each pregnant sow was administered with 50 g of the pharmaceutical composition in Embodiment 6 per day, and the administration was in a single dose or in divided doses. […]

[3] = test system: porcine epidemic diarrhea; experiment: Treatment of porcine epidemic diarrhea of newborn suckling piglets (piglets and lactating sows treated); type: in vivo, pigs; conditions: diseased newborn suckling piglets; taurine 100 g per sow per day, 0.2 g per piglet per day
Method: Treatment of the porcine epidemic diarrhea on newborn piglets with taurine was implemented by orally administering a taurine solution to diseased suckling piglets and administering taurine to lactating sows, that is, simultaneous treatment of both the suckling piglets and the lactating sows.
the administration by drenching/mixed-feeding was carried out on the day when the disease occurred in the suckling piglets, and a non-interrupted administration lasted for 3-10 days. Lactating sows: non-interrupted oral administration lasted for 5-10 days.
the administration by drenching or mixed-feeding was carried out on the day when the disease occurred in the suckling piglets. The administration by drenching: 2% taurine solution at a dosage of 1-5 mL per time and it was taken 2-6 times per day. The administration by mixed-feeding: 1-20 g/L of taurine solution was drunk freely. Lactating sows: each sow was administered with 5-500 g of taurine per day and the administration was in a single dose or in divided doses.
40 litters of diseased newborn suckling piglets and sows thereof were selected and randomly divided into two groups equivalently. Control group: conventional supportive therapy (fluid infusion+antibiotic therapy+atropine sulfate); experimental group: treatment with taurine.
II. […]

[4] = test system: pseudorabies viral diarrhea; type: in vivo, pigs
[5] = test system: porcine transmissible gastroenteritis; type: in vivo, pigs
rotavirus diarrhea = experiment: Treatment of rotavirus diarrhea; type: in vivo, pigs
epidemic diarrhea = conditions: diseased piglets, oral, a certain dose; cited from earlier work
[6] = care pigs, taurine dosage as in Embodiment 4 (300 mg per kilogram of body weight per day)
[7] = newborn piglets, taurine dosage as in Embodiment 2 (100 g per sow per day, 0.2 g per piglet per day)
[8] = weaned piglets, taurine dosage as in Embodiment 4 (300 mg per kilogram of body weight per day)

NC(=O)c1ncn([C@@H]2O[C@H](CO)[C@@H](O)[C@H]2O)n1 [Ribavirin]
inhibition of replication of PEDV (PEDV): capable of inhibiting replication of PEDV

NCCS(=O)(=O)O [taurine, β-aminoethanesulfonic acid]
Prognosis ([1]; diseased care pigs): Good
Prognosis ([1]; diseased finishing pigs): Good
Prognosis ([1]; diseased weaned piglets): Good
Prognosis ([2]; care pigs): Excellent
Prognosis ([2]; finishing pigs): Excellent
Prognosis ([2]; weaned piglets): Excellent
Prognosis [3]: Good
Prognosis [4, 6]: General
treatment effect on the pseudorabies viral diarrhea ([4]; summary in text of Table 5): no treatment effect
Prognosis [5, 6]: Good
Prognosis ([5]; finishing pigs, taurine dosage as in Embodiment 4 (300 mg per kilogram of body weight per day)): Good
Prognosis [5, 7]: Good
Prognosis [5, 8]: Good
Prognosis (rotavirus diarrhea; [6]): Good
Prognosis (rotavirus diarrhea; [7]): Good
Prognosis (rotavirus diarrhea; [8]): Good

povidone iodine
improvement of survival rate (epidemic diarrhea): 5-10%
prognosis of survived suckling piglets (epidemic diarrhea): unfavourable prognosis
